Test systems include Hs-578T; SK-MEL-2; HOP-62; EKVX; SN12C; NCI-H460; UACC-62; Malme-3M; CCRF-CEM; HCT-116; RXF 393; M14; MDA-MB-435; K562; SF-539; HT-29; SK-OV-3; A549; SR.
What all share (test): NCI anticancer screen, dose series, 48 h

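Cultured in 96-well plates, cells were exposed to test compound for 48 hours across five concentrations. The concentration for 50% growth inhibition is given as GI50.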 Calls of active or inactive are those of the source. Cut-off read from the data, not from the text of the source: active = GI50 up to about 1.1 µM and inactive = higher.

In the case of `CC(=O)OCC1=C2C(OC(=O)C(C)C)CC3(COC(C)=O)OC3/C=C\C3(C)OC3C2OC1=O` (stereo not given), the GI50 in the assay on Hs-578T, in the assay with SK-MEL-2, with HOP-62, with EKVX, with SN12C and in the assay on NCI-H460 was > 100 µM (inactive) throughout. Further, the GI50 in the assay with UACC-62 is > 100 µM (inactive); in the assay with Malme-3M, > 100 µM (inactive); with CCRF-CEM, 50.5 µM (inactive); with HCT-116, > 100 µM (inactive); with RXF 393 it was > 100 µM (inactive); in the assay on M14, > 100 µM (inactive). The GI50 with MDA-MB-435, with K562, in the assay on SF-539, with HT-29, in the assay on SK-OV-3 and in the assay on A549 was > 100 µM (inactive) throughout. The GI50 in the assay on SR was > 100 µM (inactive).
As for `COc1ccc([N+](=O)[O-])c2c(NCCCN(C)C)c3ccccc3nc12`, the GI50 is 0.682 µM (active) with Hs-578T; 0.131 µM (active) in the assay with SK-MEL-2; 0.0998 µM (active) with HOP-62; 0.107 µM (active) in the assay with EKVX; 0.26 µM (active) in the assay with SN12C; 0.0355 µM (active) in the assay on NCI-H460. Besides, the GI50 with UACC-62 was 0.127 µM (active); in the assay on Malme-3M, 0.155 µM (active); in the assay with CCRF-CEM, 0.546 µM (active); with HCT-116, 0.112 µM (active); in the assay with RXF 393, 0.0838 µM (active); in the assay on M14 it was 0.183 µM (active). The GI50 in the assay with MDA-MB-435 was 0.306 µM (active); with K562 it was 0.133 µM (active); in the assay with SF-539 it was 0.308 µM (active); with HT-29, 0.07 µM (active); with SK-OV-3, 0.33 µM (active); with A549 it was 0.0843 µM (active). Also, the GI50 in the assay with SR is < 0.01 µM (active).
Turning to `COc1ccc2c(c1)CC[C@@H]1C2CC[C@]2(C)OC(=O)CCC12` (stereo not given in full), the GI50 with Hs-578T was 14.4 µM (inactive); in the assay on SK-MEL-2, 23.1 µM (inactive); in the assay on HOP-62 it was 25 µM (inactive); in the assay on EKVX it was 7.73 µM (inactive); with SN12C, 14.8 µM (inactive); with NCI-H460, 22.7 µM (inactive). In addition, the GI50 was 20.2 µM (inactive) in the assay with UACC-62; 15.7 µM (inactive) with Malme-3M; 3.6 µM (inactive) in the assay on CCRF-CEM; 8.89 µM (inactive) with HCT-116; 12.7 µM (inactive) in the assay on RXF 393; 13.2 µM (inactive) in the assay with M14. Besides, the GI50 in the assay on MDA-MB-435 was 26.5 µM (inactive); with K562, 3.01 µM (inactive); with SF-539, 15.2 µM (inactive); in the assay with HT-29, 19.8 µM (inactive); with SK-OV-3, > 100 µM (inactive); in the assay on A549, 27.9 µM (inactive). Moreover, the GI50 with SR was 5.12 µM (inactive).
For `COC(=O)/C=C/[C@@H]1[C@H](C)N1S(=O)(=O)c1ccc(C)cc1` (stereo not given in full), the GI50 in the assay on Hs-578T is > 100 µM (inactive); in the assay on SK-MEL-2, 29.7 µM (inactive); in the assay with HOP-62, > 100 µM (inactive); in the assay on EKVX, > 100 µM (inactive); with SN12C it was > 100 µM (inactive); in the assay on NCI-H460, > 100 µM (inactive). For the same molecule, the GI50 with UACC-62, in the assay on Malme-3M, in the assay with CCRF-CEM, in the assay on HCT-116, with RXF 393 and with M14 was > 100 µM (inactive) throughout. In addition, the GI50 in the assay with MDA-MB-435, in the assay on K562, in the assay on SF-539, in the assay with HT-29, in the assay with SK-OV-3 and with A549 was > 100 µM (inactive) in each case. For the same molecule, in the assay on SR, the GI50 was > 100 µM (inactive).
Take `COc1ccc(C[C@@H]2OC3(C=CC(=O)C=C3)O[C@H]2Cc2ccc(OC)cc2)cc1`: the GI50 is 0.971 µM (active) in the assay with Hs-578T; 1.38 µM (inactive) in the assay on SK-MEL-2; 1.59 µM (inactive) in the assay with HOP-62; 1.89 µM (inactive) with EKVX; 1.05 µM (active) with SN12C; 7.14 µM (inactive) with NCI-H460. For the same molecule, the GI50 is 1.72 µM (inactive) in the assay on UACC-62; 1.51 µM (inactive) with Malme-3M; 0.14 µM (active) with CCRF-CEM; 0.133 µM (active) in the assay with HCT-116; 0.277 µM (active) with RXF 393; 0.889 µM (active) in the assay with M14. For the same molecule, the GI50 with MDA-MB-435 is 1.53 µM (inactive); with K562, 0.61 µM (active); in the assay with SF-539, 1.14 µM (inactive); in the assay on HT-29, 0.766 µM (active); in the assay with SK-OV-3, 6.15 µM (inactive); in the assay with A549 it was 3.1 µM (inactive). Moreover, the GI50 in the assay on SR was 0.176 µM (active).
Turning to `CC(=O)N(C(=O)CC(=O)NNCc1ccccc1Cl)c1ccc(Cl)cc1`, the GI50 is > 10 µM (inactive) with Hs-578T; > 10 µM (inactive) in the assay on SK-MEL-2; > 10 µM (inactive) with HOP-62; 4.99 µM (inactive) with EKVX; > 10 µM (inactive) in the assay with SN12C; > 10 µM (inactive) with NCI-H460. In addition, the GI50 with UACC-62, in the assay on Malme-3M, with CCRF-CEM, in the assay with HCT-116, with RXF 393 and in the assay on M14 was > 10 µM (inactive) throughout. Moreover, the GI50 in the assay on MDA-MB-435, in the assay with K562, in the assay on SF-539, in the assay with HT-29, in the assay on SK-OV-3 and in the assay with A549 was > 10 µM (inactive) each time. The GI50 with SR was > 10 µM (inactive).
For `CN(C)c1ccc(/C=N\NC(=O)CSCC(=O)N/N=C/c2ccc(N(C)C)cc2)cc1`, the GI50 with Hs-578T is 20.6 µM (inactive); with SK-MEL-2, 29.9 µM (inactive); in the assay on HOP-62, 62.8 µM (inactive); in the assay with EKVX, 44.5 µM (inactive); in the assay with SN12C, 31.2 µM (inactive); in the assay with NCI-H460 it was 33.2 µM (inactive). Also, the GI50 with UACC-62 is 35.1 µM (inactive); with Malme-3M, > 100 µM (inactive); in the assay on CCRF-CEM it was 60.5 µM (inactive); in the assay with HCT-116, 46.9 µM (inactive); in the assay with RXF 393, 24.9 µM (inactive); in the assay with M14, 33.9 µM (inactive). In addition, the GI50 in the assay with MDA-MB-435 is 76.6 µM (inactive); with K562 it was 52.6 µM (inactive); in the assay with SF-539, 37.3 µM (inactive); in the assay with HT-29 it was 78.5 µM (inactive); in the assay with SK-OV-3, > 100 µM (inactive); with A549 it was 71.9 µM (inactive). The GI50 in the assay on SR was 73.8 µM (inactive).
As for `CCOC(=O)/C(=C/NC(=S)Nc1c(CC)cccc1C(C)(C)C)C(=O)c1ccccc1`, the GI50 in the assay on Hs-578T was 13.2 µM (inactive); in the assay on SK-MEL-2 it was > 100 µM (inactive); in the assay on HOP-62, > 100 µM (inactive); in the assay on EKVX it was > 100 µM (inactive); in the assay with SN12C, > 100 µM (inactive); with NCI-H460, 10 µM (inactive). In addition, the GI50 with UACC-62, in the assay with Malme-3M, in the assay on CCRF-CEM, with HCT-116, in the assay on RXF 393 and with M14 was > 100 µM (inactive) each time. For the same molecule, the GI50 in the assay on MDA-MB-435 was > 100 µM (inactive); with K562, 42.2 µM (inactive); in the assay with SF-539, > 100 µM (inactive); with HT-29 it was > 100 µM (inactive); in the assay on SK-OV-3, > 100 µM (inactive); in the assay on A549, > 100 µM (inactive). The GI50 in the assay with SR was > 100 µM (inactive).
Take `O=C1Oc2ccccc2C(=O)/C1=C/N1C(=O)/C(=C/c2ccc([N+](=O)[O-])cc2)SC1=S`: the GI50 is 6.59 µM (inactive) in the assay on Hs-578T; 24 µM (inactive) in the assay on SK-MEL-2; 18.2 µM (inactive) in the assay on HOP-62; 54.1 µM (inactive) with EKVX; 20.4 µM (inactive) in the assay with SN12C; 18.5 µM (inactive) in the assay on NCI-H460. Moreover, the GI50 was 17.9 µM (inactive) in the assay with UACC-62; 36.2 µM (inactive) in the assay on Malme-3M; 34 µM (inactive) with CCRF-CEM; 19.3 µM (inactive) in the assay with HCT-116; 25.7 µM (inactive) in the assay with RXF 393; 22.8 µM (inactive) in the assay with M14. The GI50 was 16.4 µM (inactive) in the assay with MDA-MB-435; 19.4 µM (inactive) in the assay with K562; 21.8 µM (inactive) with SF-539; 32.6 µM (inactive) in the assay with HT-29; 31.5 µM (inactive) in the assay with SK-OV-3; 26.7 µM (inactive) in the assay with A549. In the assay on SR, the GI50 is 31.6 µM (inactive).
Consider `CCCOc1ccc(-c2nc(-c3ccc(/N=C/c4ccc(N(CCOS(C)(=O)=O)CCOS(C)(=O)=O)cc4C)cc3)cs2)cc1`, for which the GI50 in the assay on Hs-578T is 29.3 µM (inactive); with SK-MEL-2, 24.5 µM (inactive); in the assay with HOP-62, 8 µM (inactive); in the assay with EKVX it was 17.6 µM (inactive); in the assay with SN12C it was 16.8 µM (inactive); with NCI-H460 it was 0.286 µM (active). For the same molecule, the GI50 in the assay with UACC-62 is 5.31 µM (inactive); in the assay on Malme-3M it was 44.4 µM (inactive); with CCRF-CEM, 2.58 µM (inactive); in the assay with HCT-116 it was 29.4 µM (inactive); in the assay with RXF 393, 6.08 µM (inactive); in the assay on M14, 16.8 µM (inactive). Besides, the GI50 is 33.8 µM (inactive) in the assay on MDA-MB-435; 22.5 µM (inactive) in the assay on K562; 12.1 µM (inactive) with SF-539; 17.9 µM (inactive) with HT-29; 5.93 µM (inactive) with SK-OV-3; 4.59 µM (inactive) with A549. Also, in the assay with SR, the GI50 was 3.85 µM (inactive).

The values above are taken from ChEMBL document CHEMBL1201862, “PubChem BioAssay data set” (2004).
